Patent US10479780B2, “Aminopyrazole derivatives” (Chugai Seiyaku Kabushiki Kaisha, priority 2015, dated 2019)
Like-named read-outs stand apart in the source and are kept apart here.

Columns and labels:
Type in all cases: biochemical
[1] = biological target: T1, human Yes1 enzyme (Homo sapiens, UniProt P07947); assay: Yes1 enzyme inhibitory activity (time-resolved fluorometry, biotinylated peptide phosphorylation); conditions: read-out: YES_IC50
T1 construct: made in house
Summary of the method: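 Inhibition was expressed against a compound-free control to give IC50, using TR-FRET read-out (Eu-cryptate anti-pTyr antibody, streptavidin-XL665).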

[2] = biological target: T2, human Src enzyme (Homo sapiens, UniProt P12931); assay: Src enzyme inhibitory activity (time-resolved fluorometry, biotinylated peptide phosphorylation); conditions: read-out: SRC_IC50
T2 construct: purchased Carna Biosciences, Inc. 08-173
Summary of the method: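 Compounds were tested for blocking tyrosine phosphorylation of a biotinylated peptide substrate by recombinant human Src. Phosphorylated product was quantified by time-resolved fluorometry using europium cryptate and XL665 conjugates, and IC50 was calculated against the compound-free control.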

[3] = biological target: T3, human Lck enzyme (Homo sapiens, UniProt P06239); assay: Lck enzyme inhibitory activity (time-resolved fluorometry, biotinylated peptide phosphorylation); conditions: read-out: LCK_IC50
T3 construct: purchased Carna Biosciences, Inc. 08-170
Summary of the method: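 Readout pairs a europium cryptate-labelled anti-phosphotyrosine antibody with XL665-streptavidin, measured by time-resolved fluorescence. IC50 derived from percent inhibition against untreated controls.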

[4] = biotinylated peptide phosphorylation

T3 sequence (P06239 whole entry): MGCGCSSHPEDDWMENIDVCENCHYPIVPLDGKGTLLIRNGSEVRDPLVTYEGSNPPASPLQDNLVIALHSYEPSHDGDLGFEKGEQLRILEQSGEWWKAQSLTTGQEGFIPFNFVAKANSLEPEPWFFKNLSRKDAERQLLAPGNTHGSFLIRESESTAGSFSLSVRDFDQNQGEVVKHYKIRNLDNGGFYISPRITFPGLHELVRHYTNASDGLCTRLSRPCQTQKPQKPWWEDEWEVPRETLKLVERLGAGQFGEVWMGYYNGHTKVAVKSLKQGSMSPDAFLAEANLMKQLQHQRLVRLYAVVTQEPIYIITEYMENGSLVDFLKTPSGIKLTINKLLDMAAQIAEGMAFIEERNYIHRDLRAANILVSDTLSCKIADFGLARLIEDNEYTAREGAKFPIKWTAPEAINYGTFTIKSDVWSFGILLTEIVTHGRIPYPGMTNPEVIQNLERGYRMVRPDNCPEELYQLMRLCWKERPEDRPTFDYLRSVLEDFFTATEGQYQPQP
T1 sequence (P07947 whole entry): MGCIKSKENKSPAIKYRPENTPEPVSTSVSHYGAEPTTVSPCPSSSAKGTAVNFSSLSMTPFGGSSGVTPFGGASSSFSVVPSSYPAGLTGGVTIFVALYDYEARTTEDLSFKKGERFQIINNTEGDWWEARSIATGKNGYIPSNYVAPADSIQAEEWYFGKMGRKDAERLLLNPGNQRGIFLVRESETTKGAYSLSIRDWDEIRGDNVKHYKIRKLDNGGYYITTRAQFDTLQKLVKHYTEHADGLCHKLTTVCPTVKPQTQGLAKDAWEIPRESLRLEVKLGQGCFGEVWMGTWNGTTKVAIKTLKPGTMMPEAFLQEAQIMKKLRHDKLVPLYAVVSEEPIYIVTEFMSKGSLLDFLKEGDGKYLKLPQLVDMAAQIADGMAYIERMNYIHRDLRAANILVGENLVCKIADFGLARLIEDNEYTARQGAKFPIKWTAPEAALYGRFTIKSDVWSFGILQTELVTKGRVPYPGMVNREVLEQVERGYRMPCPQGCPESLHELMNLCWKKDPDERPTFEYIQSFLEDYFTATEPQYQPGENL
T2 sequence (P12931 whole entry): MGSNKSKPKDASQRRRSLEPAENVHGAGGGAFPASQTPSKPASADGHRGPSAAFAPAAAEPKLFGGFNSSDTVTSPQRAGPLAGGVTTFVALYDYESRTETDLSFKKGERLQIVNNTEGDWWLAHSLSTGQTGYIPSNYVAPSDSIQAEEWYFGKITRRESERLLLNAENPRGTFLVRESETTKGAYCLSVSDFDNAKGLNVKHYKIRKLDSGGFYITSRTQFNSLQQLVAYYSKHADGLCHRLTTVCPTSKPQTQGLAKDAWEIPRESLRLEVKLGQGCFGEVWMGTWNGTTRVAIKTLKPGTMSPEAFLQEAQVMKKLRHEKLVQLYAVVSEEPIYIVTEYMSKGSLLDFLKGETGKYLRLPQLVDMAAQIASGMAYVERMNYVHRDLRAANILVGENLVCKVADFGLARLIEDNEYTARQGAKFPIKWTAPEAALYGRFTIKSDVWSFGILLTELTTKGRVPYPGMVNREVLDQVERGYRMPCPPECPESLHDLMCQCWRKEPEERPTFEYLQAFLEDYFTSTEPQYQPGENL

| Structure (SMILES) | IC50 [1, 4] | IC50 [2, 4] | IC50 [3, 4] | IC50 [1] | IC50 [2] | IC50 [3] |
| --- | --- | --- | --- | --- | --- | --- |
| Cc1cc(Oc2cccc(Cl)c2)ncc1-n1ncc(C(=O)c2cc3cc(F)c(NS(=O)(=O)C4CC4)cc3[nH]2)c1N [Example 4-7-016, N-[2-[5-amino-1-[6-(3-chlorophenoxy)-4-methylpyridin-3-yl]pyrazole-4-carbonyl]-5-fluoro-1H-indol-6-yl]cyclopropanesulfonamide] | 4.6 nM | 210 nM | 110 nM | – | – | – |
| Cc1cc(Oc2c(F)cccc2F)ncc1-n1ncc(C(=O)c2cc3cc(OCC(F)F)c(NS(=O)(=O)CCCF)cc3[nH]2)c1N [Example 4-24-032, N-[2-[5-amino-1-[6-(2,6-difluorophenoxy)-4-methylpyridin-3-yl]pyrazole-4-carbonyl]-5-(2,2-difluoroethoxy)-1H-indol-6-yl]-3-fluoropropane-1-sulfonamide] | 0.64 nM | 57 nM | 14 nM | – | – | – |
| Cc1cc(-n2ncc(C(=O)c3cc4cc(OC5CCN(C(C)C)CC5)c(N5C(=O)N[C@@H](CO)C5=O)cc4[nH]3)c2N)ccc1Oc1ccccc1F [Example 5-1-293, (5S)-3-[2-[5-amino-1-[4-(2-fluorophenoxy)-3-methylphenyl]pyrazole-4-carbonyl]-5-(1-propan-2-ylpiperidin-4-yl)oxy-1H-indol-6-yl]-5-(hydroxymethyl)imidazolidine-2,4-dione] | – | – | – | 0.73 nM | 440 nM | 18 nM |
| Cc1cc(Oc2ccccc2F)cc(F)c1-n1ncc(C(=O)c2cc3cc(OCC(F)F)c(N4CCN(S(C)(=O)=O)CC4)cc3[nH]2)c1N [Example 4-23-006, [5-amino-1-[2-fluoro-4-(2-fluorophenoxy)-6-methylphenyl]pyrazol-4-yl]-[5-(2,2-difluoroethoxy)-6-(4-methylsulfonylpiperazin-1-yl)-1H-indol-2-yl]methanone] | 2.7 nM | 22 nM | 13 nM | – | – | – |
| COc1cc2cc(C(=O)c3cnn(-c4cnc(Oc5c(F)cccc5F)cc4C)c3N)[nH]c2cc1NS(=O)(=O)CC(=O)N1CCOCC1 [Example 5-1-143, N-[2-[5-amino-1-[6-(2,6-difluorophenoxy)-4-methylpyridin-3-yl]pyrazole-4-carbonyl]-5-methoxy-1H-indol-6-yl]-2-morpholin-4-yl-2-oxoethanesulfonamide] | – | – | – | 0.59 nM | 15 nM | 11 nM |
| CC(C)N1CCC(c2cc3[nH]c(C(=O)c4cnn(-c5ccc(Oc6cccc(F)c6F)cc5)c4N)cc3cc2F)CC1 [Example 5-1-013, [5-amino-1-[4-(2,3-difluorophenoxy)phenyl]pyrazol-4-yl]-[5-fluoro-6-(1-propan-2-ylpiperidin-4-yl)-1H-indol-2-yl]methanone] | – | – | – | 1.6 nM | 30 nM | 2.5 nM |
| Cc1cc(Oc2ccccc2F)ccc1-n1ncc(C(=O)c2cc3cc(F)c(NC(=O)C(F)(F)F)cc3[nH]2)c1N [Example 5-1-029, N-[2-[5-amino-1-[4-(2-fluorophenoxy)-2-methylphenyl]pyrazole-4-carbonyl]-5-fluoro-1H-indol-6-yl]-2,2,2-trifluoroacetamide] | – | – | – | 0.73 nM | 17 nM | 13 nM |
| Cc1ccccc1-c1cc2[nH]c(C(=O)c3cnn(-c4cnc(Oc5c(F)cccc5F)cc4C)c3N)cc2cc1OC1CCN(C2CS(=O)(=O)C2)CC1 [Example 5-1-338, [5-amino-1-[6-(2,6-difluorophenoxy)-4-methylpyridin-3-yl]pyrazol-4-yl]-[5-[1-(1,1-dioxothietan-3-yl)piperidin-4-yl]oxy-6-(2-methylphenyl)-1H-indol-2-yl]methanone] | – | – | – | 3 nM | 180 nM | 30 nM |
| COc1ccccc1S(=O)(=O)Nc1cc2[nH]c(C(=O)c3cnn(-c4cnc(Oc5c(F)cccc5F)cc4C)c3N)cc2cc1OCC(F)F [Example 5-1-329, N-[2-[5-amino-1-[6-(2,6-difluorophenoxy)-4-methylpyridin-3-yl]pyrazole-4-carbonyl]-5-(2,2-difluoroethoxy)-1H-indol-6-yl]-2-methoxybenzenesulfonamide] | – | – | – | 9 nM | 720 nM | 150 nM |
| Cc1cc(Oc2cccc(F)c2F)cc(F)c1-n1ncc(C(=O)c2cc3cc(F)c(NS(C)(=O)=O)cc3[nH]2)c1N [Example 4-7-005, N-[2-[5-amino-1-[4-(2,3-difluorophenoxy)-2-fluoro-6-methylphenyl]pyrazole-4-carbonyl]-5-fluoro-1H-indol-6-yl]methanesulfonamide] | 2.8 nM | 160 nM | 45 nM | – | – | – |
| Cc1cc(Oc2cccc(F)c2F)ccc1-n1ncc(C(=O)c2cc3cc(F)c(NS(C)(=O)=O)cc3[nH]2)c1N [Example 4-2-029, N-[2-[5-amino-1-[4-(2,3-difluorophenoxy)-2-methylphenyl]pyrazole-4-carbonyl]-5-fluoro-1H-indol-6-yl]methanesulfonamide] | 0.64 nM | 28 nM | 5.5 nM | – | – | – |
| Cc1cc(Oc2ccccc2Cl)nc(C)c1-n1ncc(C(=O)c2cc3cc(F)c(NS(C)(=O)=O)cc3[nH]2)c1N [Example 5-1-051, N-[2-[5-amino-1-[6-(2-chlorophenoxy)-2,4-dimethylpyridin-3-yl]pyrazole-4-carbonyl]-5-fluoro-1H-indol-6-yl]methanesulfonamide] | – | – | – | 60 nM | 320 nM | 82 nM |
| Nc1c(C(=O)c2cc3cc(F)c(NS(=O)(=O)CCCF)cc3[nH]2)cnn1-c1c(F)cc(Oc2ccccc2F)cc1F [Example 5-1-027, N-[2-[5-amino-1-[2,6-difluoro-4-(2-fluorophenoxy)phenyl]pyrazole-4-carbonyl]-5-fluoro-1H-indol-6-yl]-3-fluoropropane-1-sulfonamide] | – | – | – | 0.84 nM | 65 nM | 20 nM |
| Cc1cc(Oc2c(F)cccc2F)ncc1-n1ncc(C(=O)c2cc3cc(OCC(F)F)c(NS(=O)(=O)c4cccc(Cl)c4)cc3[nH]2)c1N [Example 5-1-383, N-[2-[5-amino-1-[6-(2,6-difluorophenoxy)-4-methylpyridin-3-yl]pyrazole-4-carbonyl]-5-(2,2-difluoroethoxy)-1H-indol-6-yl]-3-chlorobenzenesulfonamide] | – | – | – | 9.2 nM | 630 nM | 270 nM |
| Cc1cc(Oc2ccccc2F)ccc1-n1ncc(C(=O)c2cc3cc(OCC(F)F)c(N4C(=O)[C@@H]5C[C@H](NS(=O)(=O)Cc6ccccc6)CN5C4=O)cc3[nH]2)c1N [Example 5-1-275, N-[(6S,7aS)-2-[2-[5-amino-1-[4-(2-fluorophenoxy)-2-methylphenyl]pyrazole-4-carbonyl]-5-(2,2-difluoroethoxy)-1H-indol-6-yl]-1,3-dioxo-5,6,7,7a-tetrahydropyrrolo[1,2-c]imidazol-6-yl]-1-phenylmethanesulfonamide] | – | – | – | 0.64 nM | 19 nM | 7 nM |
| Cc1cc2cc(C(=O)c3cnn(-c4cnc(Oc5ccccc5F)cc4C)c3N)[nH]c2cc1N1C(=O)NC(C)(C)C1=O [Example 5-1-334, 3-[2-[5-amino-1-[6-(2-fluorophenoxy)-4-methylpyridin-3-yl]pyrazole-4-carbonyl]-5-methyl-1H-indol-6-yl]-5,5-dimethylimidazolidine-2,4-dione] | – | – | – | 1.3 nM | 41 nM | 4 nM |
| Cc1cc(Oc2ccccc2F)ccc1-n1ncc(C(=O)c2cc3cc(OCC(F)F)c(N4C(=O)[C@@H]5C[C@@H](O)CN5C4=O)cc3[nH]2)c1N [Example 5-1-250] | – | – | – | 0.76 nM | 7.5 nM | 2.8 nM |
| Cc1cc(Oc2ccccc2F)ccc1-n1ncc(C(=O)c2cc3cc(OC(F)F)c(N4CCCC4=O)cc3[nH]2)c1N [Example 4-21-006, 1-[2-[5-amino-1-[4-(2-fluorophenoxy)-2-methylphenyl]pyrazole-4-carbonyl]-5-(difluoromethoxy)-1H-indol-6-yl]pyrrolidin-2-one] | 1.6 nM | 17 nM | 5.5 nM | – | – | – |
| Cc1cc(Oc2ccccc2F)ccc1-n1ncc(C(=O)c2cc3cc(F)c(N4C(=O)NC5(CCOCC5)C4=O)cc3[nH]2)c1N [Example 5-1-437, 3-[2-[5-amino-1-[4-(2-fluorophenoxy)-2-methylphenyl]pyrazole-4-carbonyl]-5-fluoro-1H-indol-6-yl]-8-oxa-1,3-diazaspiro[4.5]decane-2,4-dione] | 0.79 nM | 40 nM | 7.8 nM | – | – | – |
| Cc1cc(Oc2c(F)cccc2F)ncc1-n1ncc(C(=O)c2cc3cc(OCC(F)F)c(NS(=O)(=O)c4ccccc4Cl)cc3[nH]2)c1N [Example 5-1-328, N-[2-[5-amino-1-[6-(2,6-difluorophenoxy)-4-methylpyridin-3-yl]pyrazole-4-carbonyl]-5-(2,2-difluoroethoxy)-1H-indol-6-yl]-2-chlorobenzenesulfonamide] | – | – | – | 14 nM | 890 nM | 230 nM |
| Cc1cc2cc(C(=O)c3cnn(-c4cnc(Oc5ccccc5F)cc4C)c3N)[nH]c2cc1NS(C)(=O)=O [Example 4-2-061, N-(2-(5-Amino-1-(6-(2-fluorophenoxy)-4-methylpyridin-3-yl)-1H-pyrazole-4-carbonyl)-5-methyl-1H-indol-6-yl)methanesulfonamide] | 0.52 nM | 31 nM | 6.5 nM | – | – | – |
| Cc1cc(Oc2ccccc2F)ccc1-n1ncc(C(=O)c2cc3cc(OCC(F)F)c(C4CCN(S(C)(=O)=O)CC4)cc3[nH]2)c1N [Example 4-17-015, [5-amino-1-[4-(2-fluorophenoxy)-2-methylphenyl]pyrazol-4-yl]-[5-(2,2-difluoroethoxy)-6-(1-methylsulfonylpiperidin-4-yl)-1H-indol-2-yl]methanone] | 5 nM | 14 nM | 14 nM | – | – | – |
